# What was measured:
# CusDI = target: T1, CusDI (Flavobacterium johnsoniae, UniProt A5FB66); test: isothermal titration calorimetry; type: binding; conditions: 20 mM HEPES, 100 mM NaCl, pH 7.0, 25 °C, one-site model
# T1 construct: gene Fjoh_4558; residues 33-526, signal peptide removed, N-terminal His tag removed with TEV, E. coli Rosetta(DE3) pLysS
# T1 sequence (A5FB66 33-526): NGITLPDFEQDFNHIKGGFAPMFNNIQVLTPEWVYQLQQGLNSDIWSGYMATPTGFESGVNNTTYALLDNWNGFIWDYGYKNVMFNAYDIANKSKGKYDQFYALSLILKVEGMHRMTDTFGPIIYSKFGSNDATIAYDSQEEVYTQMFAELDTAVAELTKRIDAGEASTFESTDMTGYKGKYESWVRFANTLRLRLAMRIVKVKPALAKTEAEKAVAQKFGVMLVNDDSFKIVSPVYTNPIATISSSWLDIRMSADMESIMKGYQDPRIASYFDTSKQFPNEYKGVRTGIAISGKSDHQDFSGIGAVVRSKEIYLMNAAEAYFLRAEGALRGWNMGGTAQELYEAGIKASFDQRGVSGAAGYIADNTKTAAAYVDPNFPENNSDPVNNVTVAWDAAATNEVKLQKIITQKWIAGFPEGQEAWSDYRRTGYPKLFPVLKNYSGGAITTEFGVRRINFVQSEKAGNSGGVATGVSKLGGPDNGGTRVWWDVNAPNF
# Source text: isothermal titration calorimetry on CusDI
# CusDII = target: T2, CusDII (Flavobacterium johnsoniae, UniProt A5FB55); test: isothermal titration calorimetry; type: binding; conditions: 20 mM HEPES, 100 mM NaCl, pH 7.0, 25 °C; independent site model
# T2 construct: gene Fjoh_4561; residues 26-505 (crystal construct 35-505), signal peptide removed, N-terminal His tag removed with TEV, E. coli Rosetta(DE3) pLysS
# T2 sequence (A5FB55 26-505): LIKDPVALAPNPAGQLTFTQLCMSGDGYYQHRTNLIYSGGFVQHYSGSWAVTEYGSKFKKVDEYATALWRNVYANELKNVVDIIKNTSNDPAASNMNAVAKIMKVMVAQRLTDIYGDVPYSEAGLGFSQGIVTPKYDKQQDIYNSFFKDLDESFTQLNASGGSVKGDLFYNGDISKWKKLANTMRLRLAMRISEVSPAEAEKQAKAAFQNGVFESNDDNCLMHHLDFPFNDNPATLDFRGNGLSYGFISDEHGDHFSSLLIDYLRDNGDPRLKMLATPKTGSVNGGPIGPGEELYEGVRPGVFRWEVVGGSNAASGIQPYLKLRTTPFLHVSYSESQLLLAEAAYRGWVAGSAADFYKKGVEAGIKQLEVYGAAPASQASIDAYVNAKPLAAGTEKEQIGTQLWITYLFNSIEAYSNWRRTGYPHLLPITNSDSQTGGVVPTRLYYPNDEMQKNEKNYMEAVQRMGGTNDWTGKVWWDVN
# Source text: isothermal titration calorimetry on CusDII
Kd (CusDI),Kd (CusDII),Compound,also measured
25.6 ± 2.3 µM,–,CC(=O)N[C@H]1[C@H](O[C@H]2[C@H](O)[C@@H](NC(C)=O)C(O)O[C@@H]2CO)O[C@H](CO)[C@@H](O)[C@@H]1O (some centres unmarked) [Chitobiose],–
16.1 ± 0.42 µM,41.2 ± 1 µM,CC(=O)N[C@H]1[C@H](O[C@H]2[C@H](O)[C@@H](NC(C)=O)[C@H](O[C@H]3[C@H](O)[C@@H](NC(C)=O)C(O)O[C@@H]3CO)O[C@@H]2CO)O[C@H](CO)[C@@H](O[C@@H]2O[C@H](CO)[C@@H](O[C@@H]3O[C@H](CO)[C@@H](O[C@@H]4O[C@H](CO)[C@@H](O)[C@H](O)[C@H]4NC(C)=O)[C@H](O)[C@H]3NC(C)=O)[C@H](O)[C@H]2NC(C)=O)[C@@H]1O (some centres unmarked) [Chitohexaose],–
12.8 ± 0.21 µM,236 ± 8 µM,CC(=O)N[C@H]1[C@H](O[C@H]2[C@H](O)[C@@H](NC(C)=O)[C@H](O[C@H]3[C@H](O)[C@@H](NC(C)=O)C(O)O[C@@H]3CO)O[C@@H]2CO)O[C@H](CO)[C@@H](O[C@@H]2O[C@H](CO)[C@@H](O[C@@H]3O[C@H](CO)[C@@H](O)[C@H](O)[C@H]3NC(C)=O)[C@H](O)[C@H]2NC(C)=O)[C@@H]1O (some centres unmarked) [Chitopentaose],–
–,–,CC(=O)N[C@H]1[C@H](O[C@H]2[C@H](O)[C@@H](NC(C)=O)C(O)O[C@@H]2CO)O[C@H](CO)[C@@H](O[C@@H]2O[C@H](CO)[C@@H](O[C@@H]3O[C@H](CO)[C@@H](O)[C@H](O)[C@H]3NC(C)=O)[C@H](O)[C@H]2NC(C)=O)[C@@H]1O (some centres unmarked) [Chitotetraose],Kd (CusDI; single titration): 38.3 ± 4.3 µM
8.51 ± 0.51 µM,–,CC(=O)N[C@H]1[C@H](O[C@H]2[C@H](O)[C@@H](NC(C)=O)C(O)O[C@@H]2CO)O[C@H](CO)[C@@H](O[C@@H]2O[C@H](CO)[C@@H](O)[C@H](O)[C@H]2NC(C)=O)[C@@H]1O (some centres unmarked) [Chitotriose],–
–,–,CC(=O)N[C@H]1C(O)O[C@H](CO)[C@@H](O)[C@@H]1O (some centres unmarked) [GlcNAc],Kd (CusDI; n constrained to 1): 1470 ± 210 µM

# Reference: publication PMC5127042, “A polysaccharide utilization locus from Flavobacterium johnsoniae enables conversion of recalcitrant chitin” (Biotechnology for Biofuels, 2016)
